Measured values from ChEMBL document CHEMBL1201862, “PubChem BioAssay data set” (2004).
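Results reflect a 48-hour exposure of cells in 96-well plates to compound at five concentrations. GI50 marks 50% less growth.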 Active and inactive are the calls of the source. No stated cut-off is given here; in the data, active = GI50 up to about 1.1 µM and inactive = higher.

Columns and labels:
Experiment in all cases: NCI-60 cell line screen, 48 h
[1] = tested on: TK-10
[2] = tested on: HOP-92
[3] = tested on: A549
[4] = tested on: XF498
[5] = tested on: SR
[6] = tested on: NCI-H460
[7] = tested on: SK-MEL-5
[8] = tested on: ACHN
[9] = tested on: SF-268
[10] = tested on: U-251
[11] = tested on: OVCAR-3
[12] = tested on: HOP-62
[13] = tested on: UO-31
[14] = tested on: IGROV-1
[15] = tested on: EKVX
[16] = tested on: SNB-19
[17] = tested on: RPMI-8226

Row | SMILES | GI50 [1] | GI50 [2] | GI50 [3] | GI50 [4] | GI50 [5] | GI50 [6] | GI50 [7] | GI50 [8] | GI50 [9] | GI50 [10] | GI50 [11] | GI50 [12] | GI50 [13] | GI50 [14] | GI50 [15] | GI50 [16] | GI50 [17]
1 | COC(=O)C(C)(C)/N=C/N(C)C | > 100 µM (inactive) | > 100 µM (inactive) | > 100 µM (inactive) | > 100 µM (inactive) | > 100 µM (inactive) | > 100 µM (inactive) | > 100 µM (inactive) | > 100 µM (inactive) | > 100 µM (inactive) | > 100 µM (inactive) | > 100 µM (inactive) | > 100 µM (inactive) | > 100 µM (inactive) | > 100 µM (inactive) | > 100 µM (inactive) | > 100 µM (inactive) | –
2 | NCCOc1ccc(/C(=C(/Cl)c2ccccc2)c2ccccc2)cc1 | 12.9 µM (inactive) | 5.18 µM (inactive) | 16 µM (inactive) | 5.6 µM (inactive) | 3.21 µM (inactive) | 7.14 µM (inactive) | 9.1 µM (inactive) | 14 µM (inactive) | 13.2 µM (inactive) | 10.9 µM (inactive) | 12.4 µM (inactive) | 17.9 µM (inactive) | 9.16 µM (inactive) | 14.4 µM (inactive) | 15.1 µM (inactive) | 14.4 µM (inactive) | 3.17 µM (inactive)
3 | Clc1ccccc1C(n1cc(Br)cn1)n1cc(Br)cn1 | 23.6 µM (inactive) | 7.48 µM (inactive) | – | 17.5 µM (inactive) | 18.8 µM (inactive) | 14.7 µM (inactive) | 11 µM (inactive) | 16.5 µM (inactive) | > 10 µM (inactive) | 18.5 µM (inactive) | > 10 µM (inactive) | 25.5 µM (inactive) | 12.6 µM (inactive) | > 10 µM (inactive) | – | 27.4 µM (inactive) | 13.6 µM (inactive)
4 | CC(=O)CC(=O)CCCC(=O)Nc1ccc(Cl)cc1Cl | > 100 µM (inactive) | > 100 µM (inactive) | > 100 µM (inactive) | > 100 µM (inactive) | > 100 µM (inactive) | > 100 µM (inactive) | – | > 100 µM (inactive) | > 100 µM (inactive) | – | > 100 µM (inactive) | > 100 µM (inactive) | > 100 µM (inactive) | > 100 µM (inactive) | – | > 100 µM (inactive) | > 100 µM (inactive)
5 | COC(=O)C1=C(c2ccc3c(c2)OCO3)O[C@H](c2cc(OC)c(OC)c(OC)c2)[C@H]1COC(C)=O | 13.5 µM (inactive) | 2.67 µM (inactive) | 7.08 µM (inactive) | 4.25 µM (inactive) | 1.35 µM (inactive) | 4.3 µM (inactive) | 0.973 µM (active) | 4.91 µM (inactive) | 7.5 µM (inactive) | 3.48 µM (inactive) | 1.19 µM (inactive) | 3.08 µM (inactive) | 4.31 µM (inactive) | 6.84 µM (inactive) | 38.3 µM (inactive) | – | 11.3 µM (inactive)
6 | O=C(Nc1nc2ccc([N+](=O)[O-])cc2s1)C(=O)C(C(=O)c1ccncc1)C1OC(=O)c2ccccc21 (stereo unspecified) | – | > 100 µM (inactive) | > 100 µM (inactive) | > 100 µM (inactive) | > 100 µM (inactive) | – | – | > 100 µM (inactive) | > 100 µM (inactive) | > 100 µM (inactive) | > 100 µM (inactive) | > 100 µM (inactive) | – | > 100 µM (inactive) | 92.5 µM (inactive) | > 100 µM (inactive) | > 100 µM (inactive)
7 | Cc1ccc(S(=O)(=O)CC(=O)CC(=O)C(=O)Nc2cccc(C(F)(F)F)c2)cc1 | > 100 µM (inactive) | > 100 µM (inactive) | > 100 µM (inactive) | > 100 µM (inactive) | > 100 µM (inactive) | – | > 100 µM (inactive) | > 100 µM (inactive) | > 100 µM (inactive) | > 100 µM (inactive) | > 100 µM (inactive) | – | > 100 µM (inactive) | > 100 µM (inactive) | > 100 µM (inactive) | > 100 µM (inactive) | > 100 µM (inactive)
